Entries after “also recorded” stand apart in the source; their conditions may differ. Ends that are not written are not given here.

One experiment relates to DNA methyltransferase. The experiment is described as follows: miR-184 expression by RT-PCR in adult CD4 T-cells treated with 5-aza deoxycytidine. The experiment is classed as cell-based, human. To be noted: 10 uM for 24 h. As to the method: FIG. 29A-B—A.) Schematic of the genomic region surrounding hsa-miR-184. Dots denote CpG sites and a putative CpG island (defined by observed/expected CpG incidence>[…], GC>50%, length>100 bp) located closely upstream. B) Adult CD4 T-cells were cultured with and without the DNA methyltransferase blocker 5-aza deoxycytidine (5-aza) for 24 h, a portion stimulation for 6 h, then assayed for miR-184 expression by RT-PCR.
However, expression of many miRNA species is known to be mediated by epigenetic events such as DNA methylation. […] Indeed we observed a small predicted (obs/exp>0.6, GC>50%) CpG island upstream of the miR-184 genomic site as well as several additional downstream CpG sites (FIG. 29 A). Inhibition of […] gene silencing is accomplished by treating with 5-aza-deoxycytidine, which is incorporated into replicating DNA and blocks DNA methyltransferase enzymes.

For a further experiment, the system named is CD34+ cells. The experiment is described as follows: Transwell chemotaxis of CD34+ cells to an SDF-1 gradient (priming). It is filed as cell-based, human. The note with it: pre-incubated 1 hr with MβCD (2.5 mM); low dose of SDF-1. As to the method: FIG. 11A-B—Effect of SLP and its components on chemotaxis of CD34^+ cells. Panel A: Chemotaxis of BM CD34^+ cells towards medium alone (control), SDF-1 low (10 ng/mL) alone, SLP (combined SLP from three patients), SDF-1 low+SLP, and SDF-1 high (300 ng/mL). Data are pooled from quadruplicate samples from three independent experiments. *p<0.00001. Panel B: Chemotaxis of UCB CD34^+ cells to medium alone (control), SDF-1 low (10 ng/mL) alone and SDF-1 low (10 ng/mL)+uPAR (1 μg/mL) or +ICAM (1 μg/mL) or +VCAM (1 μg/mL) or +FN (2 μg/mL), or +FG (4 μg/mL) or +C3a (1 μg/mL). Data are pooled from quadruplicate samples from three independent experiments. * p<0.00001.
Chemotaxis of CD34^+ cells to medium alone (control), C3a (1 μg/ml), C3adesArg (1 μg/ml), SDF-1 low (10 ng/mL) alone, and SDF-1 low (10 ng/mL)+C3a low (0.1 μg/ml) or SDF-1 low (10 ng/mL)+C3a (1 μg/ml) or SDF-1 low (10 ng/mL)+C3adesArg (1 μg/ml). Data are pooled from quadruplicate samples from three independent experiments.* p<0.00001.
FIG. 13A-B—Chemotaxis of cells to an SDF-1 gradient is lipid raft-dependent. Panel A: Chemotaxis of CD34^+ cells to medium alone (control), SDF-1 (300 ng/mL) and SDF-1 (300 ng/mL) after preincubation for 1 hr with Amphotericin (10 μg/mL) or Nystatin (50 μg/mL). Cells were collected after chemotaxis from the lower chambers and plated in a clonogenic assay. The number of CFU-GM and BFU-E colonies formed by harvested cells is shown as a percentage of control values. Data are pooled from quadruplicate samples from three independent experiments. *p<0.0001. Panel B: Chemotaxis of CD34^+ cells towards medium alone (control), SDF-1 low (10 ng/mL) alone, or SDF-1 low with cells exposed to C3a (1 μg/mL). Cells pretreated before chemotaxis for 1 hr with MβCD (2.5 mM) are shown as gray bars. Data are pooled from quadruplicate samples from three independent experiments. * p<0.00001.
HSPCs from the mPB engraft faster compared to HSPCs aspirated from BM. To test the hypothesis that mPB-derived HSPCs are primed in their responses to SDF-1 by molecules present in SLP, we pooled together SLP from three patients and exposed BM or UCB CD34^+ cells to the SLP during chemotaxis to a low (10 ng/mL) dose of SDF-1.
To address this issue further, the formation of rafts in the cells was perturbed by MβCD, which depletes cholesterol from the cell membrane. The CD34^+ cells were pre-incubated with MβCD for 1 hr. Chemotaxis to a low dose of SDF-1 in the presence of C3a (in the upper chambers) was evaluated.

The subject of the next experiment is THP-1 cell. The experiment is described as follows: THP-1 cell migration to SDF-1 gradient with LL-37 and MβCD pretreatment. The experiment is classed as cell-based. As to the method:
(§1) FIG. 18A-B—Priming effect of cationic peptides is dependent on enhanced incorporation of CXCR4 into lipid rafts. (A) Western blot analysis of the localization of CXCR4 in various fractions of cell membranes. Membranes enriched in lipid rafts (fractions 3-5) and depleted of lipid rafts (fractions 9-11). Human pre-B cell line, Nalm-6, was stimulated with […] β2-defensin (hBD-2) (250 ng/ml) or was not stimulated (control). CXCR4 was detected in these membrane fractions by Western blot along with Lyn, a marker of lipid rafts. Experiments were performed three times with similar results. (B) LL-37-induced enhancement of THP-1 cell migration to SDF-1 gradient was inhibited by 1 h pretreatment with MβCD (1.0 or 2.5 mM). * P<0.05 as compared with migration of control cells in the absence of LL-37 (2.5 μg/ml). Lipid raft formation was analyzed. Shown are representative of three independent experiment carried out in triplicate per group. The data shown represent the combine results from four independent experiments carried out in triplicate per group (n=12).
(§2) Since enhanced responsiveness of HSPCs to SDF-1 gradient in the presence of C3a (priming effect) is mediated by incorporation of CXCR4 into membrane lipid rafts, we tested if similar phenomenon is responsible for LL-37 or β2D-dependent priming. […]

The test system of experiment [1] is murine BMNCs and CFU-GM progenitor cells. As to the kind of experiment: Migration of murine BMNCs and CFU-GM progenitors to SDF-1 gradient after cationic peptide priming. To be noted: for migration of CFU-GM progenitor cells in response to SDF-1 gradient / migration of murine BMNCs in response to SDF-1 gradient: SDF-1 50 ng/ml; for chemotactic activity alone: without SDF-1. It is filed as cell-based. As to the method:
FIG. 8A-B—A) BM mononuclear cell and B) CFU-GM migration in response to an SDF-1 gradient after priming with LL-37 or hBD-2. Values are fold increases of migrated cells compared to media alone.
FIG. 17A-B—Cationic peptides released from granulocytes enhance responsiveness of HSPCs to SDF-1 gradient. […] Values are the fold increases of migrated cells compared to media alone. M, media alone; SDF-1 (L), 50 ng/ml; SDF-1 (H), 300 ng/ml; C3a, 1 μg/ml. * P<0.05 as compared with SDF-1 (50 ng/ml) alone. The data shown represent the combine results from four independent experiments carried out in triplicate per group (n=12).
We also evaluated the effect of complement fragment 5a (C5a). […] After leaving the BM, granulocytes undergo degranulation in response to plasma C5a and secrete cationic peptides, such as cathelicidin (LL-37) and β-defensin-2 (hBD-2). […] It was hypothesized that this response may be affected by the distribution of membrane lipids by cationic peptides. […] Direct confocal analysis of CXCR4 and lipid raft colocalization in the presence or absence of cationic peptides confirmed these findings.

Another experiment has as its system CXCR4. The experiment is described as follows: Western blot of CXCR4 in lipid raft membrane fractions, cationic peptides (Nalm-6). The experiment is classed as cell-based, human. The method, then:
as §1, §2
In general terms: A western blot detects proteins with antibodies after separation by electrophoresis.

The test system of experiment [2] is syngeneic BM mononuclear cells. The experiment is described as follows: Murine BM transplant with BM mononuclear cells exposed ex vivo to LL-37. The experiment is classed as in vivo. The note with it: BM exposed ex vivo 30 minutes; lethally irradiated recipients. As to the method:
Leukophoresis products enriched in activated granulocytes release hBD-2 and LL-37. The question was whether this might explain why mobilized peripheral blood hematopoietic progenitors engrafts substantially faster relative to marrow. We therefore performed studies in a murine BM transplant model where syngeneic BM mononuclear cells were exposed ex vivo to LL-37 for 30 minutes and subsequently transplanted into lethally irradiated recipients. […] On the basis of these findings, this represents a second strategy for reducing the period of neutropenia in recipients of UCB

`Nc1ncn([C@H]2C[C@H](O)[C@@H](CO)O2)c(=O)n1` [5-aza deoxycytidine, 5-aza-deoxycytidine]: the miR-184 expression result in the experiment on DNA methyltransferase is “significant increase”. Moreover, the “miR-184 expression increase when cells were stimulated in vitro” value in the experiment with DNA methyltransferase (stimulation 6 h) was “abrogated”.

For “methyl-β-cyclodextrin [MβCD, reference compound]”, the “inhibition of the priming effect of C3a” value with CD34+ cells is listed as roughly 60%. Moreover, in the experiment on THP-1 cell (1 h pretreatment with MβCD (1.0 or 2.5 mM), LL-37 2.5 μg/ml), the “LL-37-enhanced migration/responsiveness to SDF-1 gradient” value is given as “inhibited”. In the experiment on THP-1 cell (control experiments, MβCD pretreatment), the fMLP mediated migration entry is reported as “did not affect”. In addition, the “effect on the priming effects of LL-37 and hBD-2” value in experiment [1] (inhibitor of cell membrane raft formation) was “inhibit the priming effects”.

As to “LL-37: active fragment of cathelicidin; recombinant cationic peptide released from granulocytes (LLGDFFRKSKEKIGKEFKRIVQRIKDFLRNLVPRTES; Antibacterial peptide LL-37; UniProt P49913 134-170, looked up)”, the “incorporation of CXCR4 into membrane lipid rafts” value with CXCR4 is reported as “increase incorporation of CXCR4”. Further, in experiment [1], the “priming effect compared with that described for C3a” value is “several times higher”, the “responsiveness of hematopoietic progenitors to plasma SDF-1 (priming effect)” value is “highly enhanced”, the “migration of CFU-GM progenitor cells in response to SDF-1 gradient” value (shortened to “migration of CFU-GM progenitor cells”) is recorded as “enhance/prime migration; also recorded: strongly enhanced” and the “migration of murine BMNCs in response to SDF-1 gradient” value (from here on “migration of murine BMNCs in response”) was “enhance/prime migration; also recorded: strongly enhanced”. The chemotactic activity alone entry in experiment [1] was “do not show chemotactic activity”. Moreover, the “accelerated recovery of platelets and neutrophils compared to unprimed control cells” value in experiment [2] was 3 to 5 days.

Turning to “hBD-2: β-defensin-2; recombinant cationic peptide released from granulocytes (GIGDPVTCLKSGAICHPVFCPRRYKQIGTCGLPGTKCCKKP; ends and bridges not checked; cysteine pairing not given here; UniProt O15263 24-64, looked up)”, the “incorporation of CXCR4 into membrane lipid rafts” value with CXCR4 is “increase incorporation of CXCR4”. In experiment [1], the “priming effect compared with that described for C3a” value was “several times higher”, the “responsiveness of hematopoietic progenitors to plasma SDF-1 (priming effect)” value is recorded as “highly enhanced”, the “migration of CFU-GM progenitor cells” value was “strongly enhanced” and the “migration of murine BMNCs in response” value is recorded as “strongly enhanced”. For the same molecule, the chemotactic activity alone entry in experiment [1] is reported as “do not show chemotactic activity”. Besides, in experiment [1] (listed as β2D), the “migration of CFU-GM progenitor cells” value is “enhance/prime migration” and the “migration of murine BMNCs in response” value is reported as “enhance/prime migration”.

The values above are taken from US9233127B2, “Compositions and methods for CXCR4 signaling and umbilical cord blood stem cell engraftment” (University of Virginia Patent Foundation, priority 2012, dated 2016).
